Laboratory results from article PMC5635026, “Homo-PROTACs: bivalent small-molecule dimerizers of the VHL E3 ubiquitin ligase to induce self-degradation” (Nature Communications, 2017).

Columns and labels:
pVHL19 [1] = molecular target: T1, pVHL19 (Homo sapiens, UniProt P40337); design: made in house; method as in PMID 25166285; settings: ITC, ref [18]; cited from earlier work
Target sequence in this assay (P40337 54-213): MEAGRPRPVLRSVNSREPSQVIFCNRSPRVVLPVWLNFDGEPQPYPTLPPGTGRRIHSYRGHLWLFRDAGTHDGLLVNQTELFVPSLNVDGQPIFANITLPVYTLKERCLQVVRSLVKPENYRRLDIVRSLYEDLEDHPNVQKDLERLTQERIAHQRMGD
Target sequence in this assay (Q15369 17-112 partner limits assumed): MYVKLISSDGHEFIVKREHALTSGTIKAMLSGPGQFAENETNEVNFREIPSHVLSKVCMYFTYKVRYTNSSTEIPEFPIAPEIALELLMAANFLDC
Target sequence in this assay (Q15370 1-104 partner limits assumed): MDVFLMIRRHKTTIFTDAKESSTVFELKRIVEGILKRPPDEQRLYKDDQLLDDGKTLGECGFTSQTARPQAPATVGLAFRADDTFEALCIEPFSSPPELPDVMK

pVHL19 [2] = molecular target: T1, pVHL19; test: Immunoblot of pVHL19 protein level in HeLa cells after compound treatment; format: cell-based; design: endogenous in cells; host or cells: HeLa; settings: 10 h, read-out: pVHL19 band quantification normalized to 0.1% DMSO
Description: (§1) Cell culture. Human cell lines HeLa, U2OS and HEK 293, purchased from ATCC, were propagated in DMEM supplemented with 10% fetal bovine serum (FBS), L- glutamine, 100 μg ml^−1 of penicillin/streptomycin at 37 °C and 5% CO2. Cells were maintained for no more than 30 passages. All cell lines were routinely tested for mycoplasma contamination using MycoAlert kit from Lonza. For compound treatment experiments, cells were transferred in six-well plates with either 3 × 10^5 or 5 × 10^5 cells per well in 2 ml of media. At 80% confluence, cells were treated with compounds at the desired concentration, reaching final DMSO concentration of 0.1% v/v. Cells were incubated at 37 °C and 5% CO2 for the desired time before harvesting.
(§2) Immunoblotting. Cells were lysed in lysis buffer (20 mM Tris pH 8, 150 mM NaCl, 1% Triton × 100) and a protease inhibitor cocktail (Roche) per 10 ml buffer. For protein extracts, the dishes were placed on ice. The media was aspirated and the tissue layer washed twice with ice-cold phosphate buffer saline (PBS). Lysis buffer (120 μl) was added and the cells detached from the surface with a cell scraper. After removal of the insoluble fraction by centrifugation, the protein concentration of the supernatant was determined by Pierce™ Coomassie (Bradford) Protein Assay Kit. Protein extracts were fractionated by SDS-PAGE on 4–12% Tris-Acetate NuPage® Novex® (Life Technologies) polyacrylamide gels and transferred to a nitrocellulose membrane using wet transfer. The membrane was then blocked with 5 % w/v Bovine serum albumin (BSA) in Tris-buffered saline (TBS) with 0.1% w/v Tween-20. For detecting proteins the following primary antibodies in the given concentrations were used: anti-β-Actin (Cell Signaling Technology, 4970S, 13E5) 1:2000, anti-VHL (Cell Signaling Technology, #68547) 1:1000, anti-Hif-1α (BD Biosciences, 610959, clone 54) 1:1,000, anti-hydroxy-HIF-1α (Hyp564) (Cell Signaling Techonology; #3434) 1:1,000, anti-PHD2 (Bethyl Laboratories; A300-322A) 1:1,000, anti-PHD3 (Bethyl Laboratories; A300-327A) 1:1000, anti-CRBN (Proteintech; 11435-1-AP) 1:1,000. Following incubation with a horseradish peroxidase-conjugated secondary antibody (Cell Signaling Technology), the signal was developed using enhanced chemiluminescence (ECL) Western Blotting Detection Kit (Amersham) on Amersham Hyperfilm ECL film (Amersham). Band quantification was performed using ImageJ software and reported as relative amount as ratio of the each protein band relative to the lane’s loading control. The values obtained were then normalized to 0.1% DMSO vehicle control. See Supplementary Fig. 12 for full-scanned images of western-blots shown in the main text figures.
Target sequence in this assay (P40337 54-213): as the sequence (P40337 54-213) above
Target sequence in this assay (Q15369 whole entry partner): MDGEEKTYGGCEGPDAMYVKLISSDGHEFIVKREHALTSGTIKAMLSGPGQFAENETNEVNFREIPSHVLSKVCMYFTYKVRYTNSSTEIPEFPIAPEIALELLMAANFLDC
Target sequence in this assay (Q15370 whole entry partner): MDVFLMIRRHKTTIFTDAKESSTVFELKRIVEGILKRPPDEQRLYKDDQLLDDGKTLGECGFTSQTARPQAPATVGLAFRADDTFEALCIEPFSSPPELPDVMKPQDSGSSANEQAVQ

Hdy-HIF-1α = test: Immunoblot of HIF-1α / hydroxylated HIF-1α levels in HeLa cells; format: cell-based, Human
Description: as §1, §2

HIF-1α = test: TMT MS proteomics in HeLa cells, HIF-1α level; format: cell-based, Human; settings: 150 µM, 10 h
Description: MS proteomics. Sample preparation. HeLa cells were seeded at 5 × 10^6 on a 10 cm plate 16 h before treatment. […] Cells were incubated at 37 °C and 5% CO2 for 10 h before harvesting. Cells were placed on ice and medium was removed and cells were washed twice with cold PBS. Cells were lysed in 0.5 ml of 100 mM Tris pH 8.0, 4% (w/v) SDS supplemented with protease inhibitor cocktail (Roche). The lysate was pulse sonicated briefly and then centrifuged at 17,000 × g for 15 min at 4 °C. The supernatant fraction of cell extract was snap-frozen in liquid nitrogen and stored in −80 °C freezer. Further sample processing, digestion, desalting, labeling and fractionation were performed as previously described.
nLC-MS/MS analysis. The TMT 10plex fractions were first analyzed as previously described. Briefly, the TMT 10plex fractions were analyzed sequentially on a Q Exactive HF Hybrid Quadrupole-Orbitrap Mass Spectrometer (Thermo Scientific) coupled to an UltiMate 3000 RSLCnano UHPLC system (Thermo Scientific) and EasySpray column (75 μm × 50 cm, PepMap RSLC C18 column, 2 μm, 100 Å, Thermo Scientific). The MS2 isolation window was set to 0.4 Da and the resolution set at 120,000. MS2 resolution was set at 60,000. […] After the first analysis, the TMT labeled fractions were re-analyzed on the Q-Exactive HF using the same instrument settings and a target list generated from a theoretical trypsin digest of VHL. […]

pVHL30 = pVHL30 (Homo sapiens, UniProt P40337); test: Immunoblot of pVHL30 protein level in HeLa cells after compound treatment; format: cell-based; design: endogenous in cells; host or cells: HeLa; settings: 10 h, read-out: pVHL30 band quantification normalized to 0.1% DMSO
Description: as §1, §2

Chain of pVHL30 (P40337 whole entry): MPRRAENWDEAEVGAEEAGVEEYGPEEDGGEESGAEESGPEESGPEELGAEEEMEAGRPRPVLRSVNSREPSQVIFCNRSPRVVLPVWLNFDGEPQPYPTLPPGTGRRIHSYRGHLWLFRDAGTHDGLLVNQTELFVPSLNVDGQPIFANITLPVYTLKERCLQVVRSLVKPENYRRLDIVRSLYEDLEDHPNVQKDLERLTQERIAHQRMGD

SMILES: CC(=O)N[C@H](C(=O)N1C[C@H](O)C[C@H]1C(=O)NCc1ccc(-c2scnc2C)cc1)C(C)(C)C [VH032, reference compound]
- ΔG (pVHL19 [1]): –9.17 ± 0.02 kcal mol^−1
- ΔH (pVHL19 [1]): –5.53 ± 0.01 kcal mol^−1
- −TΔS (pVHL19 [1]): –3.65 ± 0.02 kcal mol^−1
- remaining activity at 150 µM (pVHL19 [2]): 113%
- effect on HIF-1α at 1 µM (Hdy-HIF-1α; HeLa, 1 µM): completely ineffective
- concentration at which active in cells (Hdy-HIF-1α; inhibitory concentration of the ligand alone in cells): ~ 100 µM
- protein levels of HIF-1α (HIF-1α): increased
- remaining pVHL30 protein level at 150 µM (pVHL30): 127%
